Experiment [1] has as its system Z310 cells stably expressing FRα. Kind of experiment: [3H]5MTHF uptake with transporter inhibitors. In kind it is cell-based, rat. The settings on record: 12.5 nM [3H]5MTHF, 1 hour at 37° C. As for the experimental part: Z310 cells stably expressing FRα were incubated with 12.5 nM [^3H]5MTHF alone or together with TC, MTX, PAH, probenecid and digoxin for 1 hour at 37° C. Subsequently, cells were lysed and intracellular radioactivity was measured.
We performed additional experiments to evaluate FRα-independent transport processes in Z310 cells at physiological MTHF concentration (12.5 nM). A couple of organic anion transporters are known to be expressed in Z310 cells (Halwachs et al., 2011). […] At this concentration MTX is known to block FR-mediated MTHF binding as well.

Experiment [2] deals with primary porcine choroid plexus epithelial cells (PCPEC). Kind of experiment: apical transport of 5MTHF in primary PCPECs. It is filed as cell-based. As to conditions: PCPEC loaded with 25 nM [3H]5MTHF for 24 hours; 7 μM monensin.
Experimental: Filter-grown PCPECs were loaded with 25 nM [^3H]5MTHF for 24 hours. Cells were then incubated with 7 μM monensin or left untreated. Radioactivity from medium samples was measured at the indicated time points. […] Data are means±s.e.m. of two independent experiments, each done in triplicate.
Porcine choroid plexus epithelial cells (PCPECs) were prepared basically as described previously (Hakvoort et al., 1998: J Neurochem 71, 1141-1150). Isolated PCPECs were seeded in laminin-coated transwell culture plates (0.4 μm pore size, Costar, Cambridge, Mass.) with a diameter of 12 mm using a seeding density of 20 mg wet tissue/cm2. The cell culture medium (DMEM-Ham's F-12, Biochrom, Berlin, Germany) was supplemented with 10% fetal calf serum, 4 mM glutamine, 5 μg/ml insulin, 100 U/mL penicillin and 100 μg/mL streptomycin. Cytosine arabinoside (20 μM) was added to suppress the growth of contaminating cells. After reaching confluence at days in vitro (DIV) 8, growth medium was replaced by serum-free culture medium (SFM) to support cell differentiation and improve barrier function. At DIV 10, the medium was replaced by folate-free RPMI medium (Invitrogen) without serum.
Filter-grown PCPEC were loaded with 25 nM [^3H]5MTHF for 24 hours. Subsequently, medium was changed and cells were treated with 7 μM monensin or left untreated.
Experiment [3] relates to Z310 cells stably transfected with FRα. Nature of the experiment: apical release (shedding) of [3H]5MTHF from filter-grown Z310 cells. The settings on record: FRα-transfected Z310 cells loaded 1 h with [3H]5MTHF; 7 μM monensin or 0.5 mg/ml rat transferrin. It is filed as cell-based.
Experimental: After three washing steps, cells were incubated with fresh RPMI medium containing either 7 μM monensin (Mon) or 0.5 mg/ml rat transferrin (Trans) or contained no supplementation. Samples from the apical and basolateral compartment were removed at the indicated time points. Subsequently, cells were lysed and radioactivity was measured in medium samples and cell lysates. Data are means±s.e.m. of three independent experiments.
For 5MTHF uptake and transport measurements in Z310 cells, 4.2*104 cells were seeded in laminin coated transwell culture plates (0.3 cm2 growth area, 0.4 μm pore size) in folate-free RPMI medium. To test the barrier function, dye permeability assays with lucifer yellow were performed. Cells were used for experiments when the permeability was below 1% per hour. […] Radioactivity in medium samples and cell lysates was measured in a liquid scintillation spectrometer.
FRα-transfected or vector-transfected Z310 cells were grown in a two chamber transwell system and [^3H]5MTHF was either given into the basolateral or apical compartment. After a 1 h incubation with [^3H]5MTHF the medium was replaced by fresh medium and the time-dependent emergence of [^3H]5MTHF in both compartments was detected.
In experiment [4] the test system is primary mixed cortical cultures. Kind of experiment: internalization assay in primary mixed cortical cultures. As to conditions: 2 hours at 37° C. It is filed as cell-based, neonatal mice. Here is the method: Disassociated neonatal cortices from postnatal day 0-2 mice were cultured in DMEM supplemented with 10% fetal calf serum, 1% GlutaMAX (Invitrogen), 100 U/mL penicillin and 100 μg/mL streptomycin on laminin- and poly-L-lysin-coated coverslips at 37° C. in 5% CO2. Medium was changed every 3-4 days. At DIV 7-14, mixed cortical cultures consisting of oligodendrocytes, cortical neurons and microglia on an astrocyte monolayer were obtained.
Mixed cortical cultures were obtained form neonatal mice and immediately plated on coverslips and incubated in the respective growth medium. Before the internalization assay, exosomes were purified from Z310 cells, stably transfected with FRα or vector and labelled with PKH26 and FA-FITC as described above. The uptake was performed by incubating the cell cultures with exosome dilutions for 2 hours at 37° C. and 5% CO2. Cells were then fixed, permeabilized and stained with the respective antibodies for immunofluorescence analysis.
We have unexpectedly disclosed FRα as exosomal cargo in the CSF. To further understand the biological function of this transport mechanism we injected exosomes derived from FRα-transfected or vector-transfected Z310 cells into the lateral ventricle of C57BL/6 mice. […] After incubating the cells for 2 hours at 37° C., cells were fixed and analyzed by immunofluorescence microscopy.

Experiment [5] deals with reduced folate carrier (RFC, SLC19A1) (Homo sapiens, UniProt P41440). As to conditions: read-out: influx Km of the RFC; cited from earlier work.
Experiment [6] deals with primary rat choroids plexus epithelial cells. As to conditions: read-out: Km of FRα-dependent uptake; low extracellular folate concentrations; cited from earlier work.

reduced folate carrier (RFC, SLC19A1), sequence (P41440 whole entry): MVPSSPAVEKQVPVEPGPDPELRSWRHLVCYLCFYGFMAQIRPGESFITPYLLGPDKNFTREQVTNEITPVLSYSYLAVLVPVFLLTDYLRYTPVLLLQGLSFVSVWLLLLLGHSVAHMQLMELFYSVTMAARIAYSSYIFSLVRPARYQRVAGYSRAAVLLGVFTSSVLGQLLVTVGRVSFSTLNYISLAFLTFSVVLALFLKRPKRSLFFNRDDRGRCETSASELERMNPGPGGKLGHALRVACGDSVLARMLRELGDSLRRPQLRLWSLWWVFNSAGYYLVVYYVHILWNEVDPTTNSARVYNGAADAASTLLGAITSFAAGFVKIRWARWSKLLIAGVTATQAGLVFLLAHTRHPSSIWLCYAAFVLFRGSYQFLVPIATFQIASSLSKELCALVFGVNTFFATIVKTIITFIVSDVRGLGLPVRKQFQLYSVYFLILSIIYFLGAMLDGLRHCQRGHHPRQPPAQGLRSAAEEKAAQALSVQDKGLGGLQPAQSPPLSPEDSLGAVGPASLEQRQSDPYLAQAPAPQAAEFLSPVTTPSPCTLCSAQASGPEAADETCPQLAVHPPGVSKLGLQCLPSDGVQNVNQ

As for `CCCN(CCC)S(=O)(=O)c1ccc(C(=O)O)cc1` [probenecid], in experiment [1], the “effect on uptake of [3H]5MTHF” value is reported as “none of the inhibitors reduced the uptake”.

`CC[C@@]1([C@@H]2O[C@@H]([C@H]3O[C@@](O)(CO)[C@H](C)C[C@@H]3C)C[C@@H]2C)CC[C@H]([C@]2(C)CC[C@]3(C[C@H](O)[C@@H](C)[C@@H]([C@@H](C)[C@@H](OC)[C@H](C)C(=O)O)O3)O2)O1` [monensin]: the “enhancement of apical accumulation of [3H]5MTHF” value in experiment [2] is on record as 33%. Further, the “increase of apical shedding of [3H]5MTHF” value in experiment [3] is listed as 70%.

On to `CN(Cc1cnc2nc(N)nc(N)c2n1)c1ccc(C(=O)N[C@@H](CCC(=O)O)C(=O)O)cc1` [MTX, methotrexate], for which the “effect on uptake of [3H]5MTHF” value in experiment [1] (inhibitor at 10 μM) is recorded as “significantly reduced 5MTHF uptake”.

In the case of `C[C@H]1O[C@@H](O[C@H]2[C@@H](O)C[C@H](O[C@H]3[C@@H](O)C[C@H](O[C@H]4CC[C@@]5(C)[C@H](CC[C@@H]6[C@@H]5C[C@@H](O)[C@]5(C)[C@@H](C7=CC(=O)OC7)CC[C@]65O)C4)O[C@@H]3C)O[C@@H]2C)C[C@H](O)[C@@H]1O` [digoxin], in experiment [1], the “effect on uptake of [3H]5MTHF” value is recorded as “none of the inhibitors reduced the uptake”.

“Folic acid conjugated to fluorescein isothiocyanate [FA-FITC]”: in experiment [4] (combined with FRα-positive exosomes), the “delivery of FA-FITC to cells” value is recorded as “delivered to astrocytes”. Further, the “internalization of FA-FITC by cells” value in experiment [4] (free FA-FITC without exosomes) is reported as “none of the cell types internalized free FA-FITC”.

Take `Nc1ccc(C(=O)NCC(=O)O)cc1` [p-aminohippuric acid]: the “effect on uptake of [3H]5MTHF” value in experiment [1] is reported as “none of the inhibitors reduced the uptake”.

For orientation: Km means the concentration of substrate that gives half-maximal velocity. On to `CN1c2c(nc(N)[nH]c2=O)NCC1CNc1ccc(C(=O)N[C@@H](CCC(=O)O)C(=O)O)cc1` (some centres unmarked) [5MTHF, 5-methyltetrahydrofolate], for which the values for the Km in experiment [5] and in experiment [6] were 2 to 7 µM and ~0.0095 µM, respectively.

B1: transferrin: rat transferrin (Rockland), known to induce exosome release from cells (protein, UniProt P12346 20-698, looked up)
Serotransferrin: VPDKTVKWCAVSEHENTKCISFRDHMKTVLPADGPRLACVKKTSYQDCIKAISGGEADAITLDGGWVYDAGLTPNNLKPVAAEFYGSLEHPQTHYLAVAVVKKGTDFQLNQLQGKKSCHTGLGRSAGWIIPIGLLFCNLPEPRKPLEKAVASFFSGSCVPCADPVAFPQLCQLCPGCGCSPTQPFFGYVGAFKCLRDGGGDVAFVKHTTIFEVLPQKADRDQYELLCLDNTRKPVDQYEDCYLARIPSHAVVARNGDGKEDLIWEILKVAQEHFGKGKSKDFQLFGSPLGKDLLFKDSAFGLLRVPPRMDYRLYLGHSYVTAIRNQREGVCPEGSIDSAPVKWCALSHQERAKCDEWSVSSNGQIECESAESTEDCIDKIVNGEADAMSLDGGHAYIAGQCGLVPVMAENYDISSCTNPQSDVFPKGYYAVAVVKASDSSINWNNLKGKKSCHTGVDRTAGWNIPMGLLFSRINHCKFDEFFSQGCAPGYKKNSTLCDLCIGPAKCAPNNREGYNGYTGAFQCLVEKGDVAFVKHQTVLENTNGKNTAAWAKDLKQEDFQLLCPDGTKKPVTEFATCHLAQAPNHVVVSRKEKAARVSTVLTAQKDLFWKGDKDCTGNFCLFRSSTKDLLFRDDTKCLTKLPEGTTYEEYLGAEYLQAVGNIRKCSTSRLLEACTFHKS
On to B1, for which, in experiment [3], the “increase of apical shedding of [3H]5MTHF” value turned out to be 36%.

Values taken from patent publication US9950074B2, “Composition and delivery vehicle for active agents and methods therefor” (Georg-August-Universität Göttingen Stiftung Öffenlichen …, priority 2012, dated 2018).
